{"source": "patent US11260101B2", "about": "“Repair peptide for use in promoting post-traumatic tissue repair and regeneration, and application thereof” (Jinan University, priority 2017, dated 2022)", "key": {"[1]": {"system": "human umbilical vein endothelial cells (HUVEC)", "assay": "Proliferation-promoting effect on HUVEC, CCK-8 method", "assay_type": "cell-based", "conditions": "24 hours treatment", "method": "3. Detection of the Proliferation-Promoting Effects of Repair Peptides R1, R2, R3 and R4, and the bFGF Respectively on Human Umbilical Vein Endothelial Cells (HUVEC) by Using the CCK-8 Method\nThe HUVEC cells were plated in 96-well plates at 4000 cells per well. After the cells were adhered and then starved for 24 hours, the cells were treated for 24 hours with repair peptides R1, R2, R3 or R4, or the bFGF respectively at concentrations increased by 5 times. After that, the cells were treated with a CCK-8 reagent, and the OD value of each well was detected by an enzyme-labeled instrument."}, "[2]": {"system": "chick embryo chorioallantoic membrane", "assay": "Angiogenesis in chick embryo chorioallantoic membrane, R1-R4 at the same concentration", "assay_type": "in vivo", "conditions": "100 μL at 100 ng/mL, three days culture", "method": "5. Detection of the Angiogenesis in the Chick Embryo Chorioallantoic Membrane Promoted by Repair Peptides R1, R2, R3 and R4\nA fertilized egg cultured for 5 days was placed with the bigger head of the egg up, then the eggshell was removed. 100 μL of repair peptides R1, R2, R3 and R4 at concentration of 100 ng/mL was respectively added drop-wise into the exposed chick embryo chorioallantoic membrane, and the opening was sealed with clean filter paper. A blank control group treated with PBS solution was set up. Further cultured for three days, then the chick embryo chorioallantoic membrane was peeled off, observed under a stereoscope and photographed, and the image was analyzed by using the software, ImageJ plus."}, "[3]": {"system": "mouse fibroblasts Balb/c 3T3", "assay": "Proliferation-promoting effect on fibroblasts Balb/c 3T3, CCK-8 method", "assay_type": "cell-based", "conditions": "24 hours treatment", "method": "2. Detection of the Proliferation-Promoting Effects of Repair Peptides R1, R2, R3 and R4, and the bFGF Respectively on Fibroblasts Balb/c 3T3 by Using the CCK-8 Method\nThe Ballb/c 3t3 cells were plated in 96-well plates at 4000 cells per well. After the cells were adhered and then starved for 24 hours, the cells were treated for 24 hours with the repair peptides R1, R2, R3 or R4, or the bFGF respectively at concentrations increased by 5 times. After that, the cells were treated with a CCK-8 reagent, and the optical density (OD) value of each well was detected by an enzyme-labeled instrument."}, "skin wound": {"system": "skin wound", "assay": "Skin wound healing after back incision", "assay_type": "in vivo, Balb/c mice", "conditions": "10 μL drop-wise into 1-cm sutured incisions once a day", "method": "6. Detection of the Wound Healing in […] Skin Promoted by Repair Peptides R1, R2, R3 and R4\nBalb/c mice were anesthetized by intra-peritoneal injection with 1% pentobarbital sodium (100 mg/kg), and the back was depilated and disinfected using conventional sterilization methods with 1% iodophor and 75% alcohol. Both sides of the back were cut symmetrically leaving 1-cm incisions. The incisions were sutured with two needles in the sterilized surgery. Then 10 μL of repair peptides R1, R2, R3 and R4 are respectively added drop-wise into the wounds. The wounds were open with no cotton yarn covered. A blank control group treated with PBS solution was set up."}, "FGFR2": {"molecular_target": "FGFR2 (Homo sapiens, UniProt P21802)", "sequence (P21802 22-821, species assumed)": "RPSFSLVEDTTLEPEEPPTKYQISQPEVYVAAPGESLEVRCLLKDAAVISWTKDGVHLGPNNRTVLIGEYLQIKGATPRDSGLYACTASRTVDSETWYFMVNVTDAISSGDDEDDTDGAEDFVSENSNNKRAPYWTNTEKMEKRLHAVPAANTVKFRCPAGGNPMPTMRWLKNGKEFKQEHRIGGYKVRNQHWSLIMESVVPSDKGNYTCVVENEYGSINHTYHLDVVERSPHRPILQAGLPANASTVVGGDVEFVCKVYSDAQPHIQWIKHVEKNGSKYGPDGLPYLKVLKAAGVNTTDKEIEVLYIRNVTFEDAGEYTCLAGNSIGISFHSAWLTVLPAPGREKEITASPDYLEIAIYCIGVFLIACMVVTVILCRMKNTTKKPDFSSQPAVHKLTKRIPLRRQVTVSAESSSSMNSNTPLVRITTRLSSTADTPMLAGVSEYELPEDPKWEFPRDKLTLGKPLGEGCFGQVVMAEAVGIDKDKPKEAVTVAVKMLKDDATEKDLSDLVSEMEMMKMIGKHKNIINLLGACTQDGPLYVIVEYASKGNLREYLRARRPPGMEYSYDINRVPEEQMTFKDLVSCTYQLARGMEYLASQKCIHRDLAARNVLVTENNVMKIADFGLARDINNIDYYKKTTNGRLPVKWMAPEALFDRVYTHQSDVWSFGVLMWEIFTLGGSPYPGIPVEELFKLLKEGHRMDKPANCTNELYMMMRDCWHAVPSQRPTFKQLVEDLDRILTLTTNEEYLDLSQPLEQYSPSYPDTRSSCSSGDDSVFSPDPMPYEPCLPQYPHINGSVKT", "assay": "Affinity to FGFR2 by isothermal titration calorimetry (ITC)", "assay_type": "binding", "conditions": "for Kd: read-out: dissociation constant Kd with FGFR2", "text": "1. Detection of the Affinity Between the Repair Peptide R1 and FGFR2 by Using the ITC Method\n(The K denoted the affinity constant, and the Kd denoted the dissociation constant. The larger the K was and the smaller the Kd was, the stronger the affinity was)."}, "[4]": {"system": "chick embryo chorioallantoic membrane", "assay": "Angiogenesis in chick embryo chorioallantoic membrane, R1 at increasing concentrations", "assay_type": "in vivo", "conditions": "10 μL at concentrations increased by 25 times, three days culture", "method": "4. Angiogenesis in the Chick Embryo Chorioallantoic Membrane Promoted by the Repair Peptide R1\nA fertilized egg cultured for 5 days was placed with the bigger head of the egg up. The eggshell was removed, and a silica gel ring was placed in the middle of the exposed chick embryo chorioallantoic membrane. 10 μL of the repair peptide R1 at concentrations increased by 25 times was respectively added drop-wise into the silica gel ring, and the opening was sealed with clean filter paper. A blank control group treated with PBS solution was set up. Further cultured for three days, then the chick embryo chorioallantoic membrane was peeled off, observed under a stereoscope and photographed, and the image was analyzed by using the software, ImageJ plus."}, "[5]": {"conditions": "lower concentration groups (≤0.16 μM)"}}, "note": "Positions of bridges follow the written chain, without caps; N, C: chain ends. No end group written: not given here."}
{"substance": "CGPANVETC (disulfide 1-9 (inferred)) [R4]", "values": [{"measurement": "proliferation-promoting activity on HUVEC (OD, CCK-8)", "setting": "[1]; higher concentration groups", "result": "still had a proliferation-promoting activity"}, {"measurement": "proliferation-promoting activity on HUVEC (OD, CCK-8)", "setting": "[1]; [5]", "result": "comparable proliferation-promoting activity"}, {"measurement": "capillaries in the chick embryo chorioallantoic membrane", "setting": "[2]", "result": "significantly increased"}, {"measurement": "proliferation-promoting activity on Balb/c 3T3 (OD, CCK-8)", "setting": "[3]; higher concentration groups", "result": "still had a proliferation-promoting activity"}, {"measurement": "proliferation-promoting activity on Balb/c 3T3 (OD, CCK-8)", "setting": "[3]; lower concentration groups", "result": "comparable proliferation-promoting activity"}, {"measurement": "skin wound healing", "setting": "skin wound", "result": "the healing was sped up"}]}
{"substance": "GPANVEKEKEK (R3)", "values": [{"measurement": "proliferation-promoting activity on HUVEC (OD, CCK-8)", "setting": "[1]; higher concentration groups", "result": "still had a proliferation-promoting activity"}, {"measurement": "proliferation-promoting activity on HUVEC (OD, CCK-8)", "setting": "[1]; [5]", "result": "comparable proliferation-promoting activity"}, {"measurement": "capillaries in the chick embryo chorioallantoic membrane", "setting": "[2]", "result": "significantly increased"}, {"measurement": "proliferation-promoting activity on Balb/c 3T3 (OD, CCK-8)", "setting": "[3]; higher concentration groups", "result": "still had a proliferation-promoting activity"}, {"measurement": "proliferation-promoting activity on Balb/c 3T3 (OD, CCK-8)", "setting": "[3]; lower concentration groups", "result": "comparable proliferation-promoting activity"}, {"measurement": "skin wound healing", "setting": "skin wound", "result": "the healing was sped up"}]}
{"substance": "GPANVET [R1, GPANVET]", "values": [{"measurement": "proliferation-promoting activity on HUVEC (OD, CCK-8)", "setting": "[1]; higher concentration groups", "result": "still had a proliferation-promoting activity"}, {"measurement": "proliferation-promoting activity on HUVEC (OD, CCK-8)", "setting": "[1]; [5]", "result": "comparable proliferation-promoting activity"}, {"measurement": "capillaries in the chick embryo chorioallantoic membrane", "setting": "[2]", "result": "significantly increased"}, {"measurement": "proliferation-promoting activity on Balb/c 3T3 (OD, CCK-8)", "setting": "[3]; higher concentration groups", "result": "still had a proliferation-promoting activity"}, {"measurement": "proliferation-promoting activity on Balb/c 3T3 (OD, CCK-8)", "setting": "[3]; lower concentration groups", "result": "comparable proliferation-promoting activity"}, {"measurement": "skin wound healing", "setting": "skin wound", "result": "the healing was sped up"}, {"measurement": "affinity constant K with FGFR2", "setting": "FGFR2", "result": "7.35e+08 ± 2.1e+08", "unit": "M⁻¹"}, {"measurement": "affinity to FGFR2 relative to that of bFGF", "setting": "FGFR2; R1-FGFR2 versus bFGF-FGFR2", "result": "about 4,500 times"}, {"measurement": "Kd", "setting": "FGFR2", "result": "~0.00137", "unit": "µM"}, {"measurement": "capillaries in the chick embryo chorioallantoic membrane", "setting": "[4]", "result": "significantly increased with the increasing dose"}]}
{"substance": "KVKVGPANVKVKV (R2)", "values": [{"measurement": "proliferation-promoting activity on HUVEC (OD, CCK-8)", "setting": "[1]; higher concentration groups", "result": "still had a proliferation-promoting activity"}, {"measurement": "proliferation-promoting activity on HUVEC (OD, CCK-8)", "setting": "[1]; [5]", "result": "comparable proliferation-promoting activity"}, {"measurement": "capillaries in the chick embryo chorioallantoic membrane", "setting": "[2]", "result": "significantly increased"}, {"measurement": "proliferation-promoting activity on Balb/c 3T3 (OD, CCK-8)", "setting": "[3]; higher concentration groups", "result": "still had a proliferation-promoting activity"}, {"measurement": "proliferation-promoting activity on Balb/c 3T3 (OD, CCK-8)", "setting": "[3]; lower concentration groups", "result": "comparable proliferation-promoting activity"}, {"measurement": "skin wound healing", "setting": "skin wound", "result": "the healing was sped up"}]}
{"substance": "bFGF: recombinant basic Fibroblast Growth Factor (155 amino acids), clinically applied to wounds and burns", "values": [{"measurement": "proliferation-promoting activity on HUVEC (OD, CCK-8)", "setting": "[1]; higher concentration groups", "result": "cell proliferation was inhibited"}, {"measurement": "proliferation-promoting activity on HUVEC (OD, CCK-8)", "setting": "[1]; [5]", "result": "comparable proliferation-promoting activity"}, {"measurement": "proliferation-promoting activity on Balb/c 3T3 (OD, CCK-8)", "setting": "[3]; higher concentration groups", "result": "cell proliferation was inhibited"}, {"measurement": "proliferation-promoting activity on Balb/c 3T3 (OD, CCK-8)", "setting": "[3]; lower concentration groups", "result": "comparable proliferation-promoting activity"}, {"measurement": "affinity constant K with FGFR2", "setting": "FGFR2", "result": "162000 ± 25000", "unit": "M⁻¹"}, {"measurement": "Kd", "setting": "FGFR2", "result": "~6.17", "unit": "µM"}]}
